*1 amine or outer side, *2 acyl side, *3 side chain or, on linkers, in order; H or OH if unused. Where a SMILES comes first, the peptide text is derived from it. [ ]: non-standard residue; d: D form. LeuΨ(S-CHOHCH2)Ala = CC(C)C[C@H](N[*:1])[C@@H](O)C[C@@H](C)C(=O)[*:2]
Key:
memapsin 1 = molecular target: T1, memapsin 1 (Homo sapiens, UniProt Q9Y5Z0); assay: Inhibition of memapsin 1 cleavage of fluorogenic substrate FS-2 (Ki apparent, % inhibition); type: biochemical; settings: Table 9; read-out: Ki apparent (nM) Mep1
T1 construct: made in house; host or cells: E. coli
T1 sequence (Q9Y5Z0 63-466): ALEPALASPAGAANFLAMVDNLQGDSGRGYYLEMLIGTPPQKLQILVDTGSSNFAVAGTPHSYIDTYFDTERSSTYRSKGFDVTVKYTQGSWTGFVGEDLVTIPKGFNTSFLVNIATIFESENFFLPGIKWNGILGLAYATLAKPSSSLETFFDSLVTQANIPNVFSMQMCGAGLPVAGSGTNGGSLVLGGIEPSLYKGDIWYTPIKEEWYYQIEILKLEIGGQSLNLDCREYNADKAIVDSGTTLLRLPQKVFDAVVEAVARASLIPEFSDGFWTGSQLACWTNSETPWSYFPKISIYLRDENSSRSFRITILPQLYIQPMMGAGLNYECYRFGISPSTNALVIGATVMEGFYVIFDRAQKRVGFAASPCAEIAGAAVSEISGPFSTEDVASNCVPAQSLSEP
Method: Vi/Vo depicts the ratio of initial cleavage velocities of the substrate FS-2 (Ermolieff, et al., Biochemistry […]:12450-12456 (2000)) by memapsin 1 or memapsin 2 in the absence (Vo) or presence (Vi) of a compound of the invention. […] The Vi/Vo values depicted in Table 1 were determined at conditions under which the enzyme and inhibitor concentrations were equal (e.g., about 80 nM, 100 nM).
The relationship of Ki (independent of substrate concentration) to Kiapp is a function of substrate concentration in the assay and the Km for cleavage of the substrate by either memapsin 1 or memapsin 2 by the relationship: Kiapp=Ki(1+[S]/Km).
An aliquot of the inhibitor of known concentration in DMSO was diluted into 1.8 ml 0.1 M NaOAc, pH 4.0. DMSO and added to a final concentration of 10% (v/v), and memapsin 2 (final concentration of 80 nM), followed by a 20 minute equilibration at 37° C. Compounds were evaluated for the ability to inhibit memapsin 1 and memapsin 2 at concentrations between about 10 nM and about 10 μm of inhibitor.
The relationship of Ki (independent of substrate concentration) to Kiapp is a function of substrate concentration in the assay and the Km for cleavage of the substrate by either memapsin 1 or memapsin 2 by the relationship: Kiapp=Ki (1+[S]/Km).

plasma Aβ40 [1] = assay: Inhibition of Aβ production in tg2576 transgenic mice (plasma Aβ40 ELISA); type: in vivo; settings: i.p. injection (FIG. 21C)
Method: Six-month-old tg2576 mice (n=21) were injected intraperitoneally (i.p.) 200 μg of conjugate CPI-3 or with control DMSO, in 200 μl of PBS. Plasma were collected from anesthetized animals by orbital bleed or sephaneous vein into heparinized capillary tubes and clarified by centrifugation. Plasma A≢ 1-40 levels were determined by capture ELISA (BioSource International, Camarillo, Calif.). The peptide analogue of CPI-3, with an amide group instead of the hydroxyethylene isostere was synthesized by SynPep (Camarillo, Calif.).
Since the conjugate inhibitors can cross the blood brain barrier in vivo, enter cells both in vitro and in vivo, and inhibit Aβ production in vitro, inhibition of Aβ production in vivo was determined. Tg2576 mice, expressing the Swedish mutation of the human amyloid precursor protein (including SEQ ID NO: 11) (Hsiao, K., et al., Science 274:99-102 (1996), the teachings of which are incorporated hereby in their entirety) were injected with CPI-3, which is identical in amino acid sequence to CPI-2 and lacks the amino-terminal fluorescein (FAM) derivative. Blood was collected from tg2576 animals at time intervals following injection of 400 μg of CPI-3.

plasma Aβ40 [2] = assay: Inhibition of Aβ production in APP/F transgenic mouse model of Alzheimer's disease (plasma Aβ40 sandwich ELISA); type: in vivo, mice; settings: control inhibitor, 163 nmoles i.p., 2 hours following injection
Method: Compounds MMI-138, MMI-165, and MMI-185 were synthesized as described above. Compounds were dissolved in 1 ml of dimethyl sulfoxide (DMSO) to a final concentration of about 1 mg/ml for MMI-165 and MMI-185, and about 10 mg/ml for MMI-138. […] Inhibitors were diluted into PBS or H2O immediately prior to injection, as described below. Inhibition constants were determined by methods described by Ermolieff, et al (Biochem. 39:12450-12456 (2000), the teachings of which are incorporated hereby in their entirety).
The tg2576 strain of mice was obtained from Taconic (Germantown, N.Y.). The APP/F strain of mice were obtained by mating the tg2576 mice with the FVB/N strain. To determine presence of the Swedish APP gene in APP/F mice, the DNA from mice was isolated according to the Qiagen Dneasy™ Tissue Kit. PCR (Qiagen kit and protocol) was used to amplify the fragment of DNA corresponding to the human Swedish APP gene. The following primers were used: […]
At the age of three months, animals of the Alzheimer's disease mouse model APP/F were injected intraperitoneally (i.p.) with about 163 nanomoles of either compounds MMI-138 (molecular weight 674 g/mole; 110 μg per animal, n=2), MMI-165 (molecular weight 626 g/mole; 102 μg per animal, n—2), or MMI-185 (molecular weight 686; 112 μg per animal, n—2).
Heparinized capillary tubes collected blood samples from anesthetized animals from either the retro-orbital sinus or from the saphenous vein at specified intervals following injection. The blood samples were transferred to sterile 1.5 mL microcentrifuge tubes, centrifuged at 5,100 RPM for 10 minutes to recover the plasma (supernatant), and stored at −70° C. until analysis for the Aβ40 by Enzyme Linked-Immuno-Sorbent Assay (ELISA).
A sandwich ELISA (BioSource International, Camarillo, Calif.) was used to determine the levels of Aβ40 in plasma samples. The ELISA utilizes a primary antibody specific for human Aβ for the immobilization of the amino-terminus and a detection antibody specific for the carboxy-terminal amino acids of Aβ40. A conjugated secondary antibody was used to detect the ternary complex, using a stabilized chromogen substrate, quantifiable following addition of 1 M HCl, with the optical densities measured at 450 nm. The procedures were followed according to the BioSource protocol. Optical densities were converted to pg/ml quantities of Aβ40 using a linear regression of the optical densities of standards obtained from the commercial kit, to their known concentrations.

plasma Aβ40 [3] = assay: as above; type: in vivo, mice; settings: unconjugated inhibitor, MW 935 g/mole
[4] = Martin et al., Aids 13:1227-32 (1999); cited from earlier work

Row | SMILES | Ki (memapsin 1) [nM] | Effect on plasma Aβ40 levels (plasma Aβ40 [1]) | Decrease of plasma Aβ40 (plasma Aβ40 [2]) [%] | Inhibition of Aβ40 production in vivo (plasma Aβ40 [3]) | Crossing of the blood-brain barrier [4]
1 | CC(C)C[C@H](NC(=O)[C@@H](N)CCC(=O)O)C(=O)N[C@@H](CC(=O)O)C(=O)N[C@@H](CC(C)C)[C@@H](O)C[C@@H](C)C(=O)N[C@H](C(=O)N[C@@H](CCC(=O)O)C(=O)N[C@@H](Cc1ccccc1)C(=O)O)C(C)C [OM00-3, ELDL*AVEF] (H-ELD[LeuΨ(S-CHOHCH2)Ala]VEF-OH; N-terminus assumed) | 0.18 | did not reduce plasma Aβ40 levels | 16 | failed to inhibit Aβ40 production | –
2 | CC(C)(C)NC(=O)[C@@H]1CN(Cc2cccnc2)CCN1C[C@@H](O)C[C@@H](Cc1ccccc1)C(=O)N[C@H]1c2ccccc2C[C@H]1O [indinavir] | – | – | – | – | can cross the blood-brain barrier

Reference: patent US20060234944A1, “Beta-secretase inhibitors and methods of use” (Oklahoma Medical Reseach Foundation, priority 2001, published 2006)
